# Experimental data: US7629318B2, “Immunosuppressant compounds, methods and uses related thereto” (priority 2002, dated 2009)
# Numbered stars: 1 amine (or outer) side, 2 acyl side, 3 side chain; on linkers, the order of the positions; unused ones are H or OH. Square brackets hold non-standard residues; d marks the D form. Peptide text beside a SMILES is read from it. * marks the point of attachment. ξ: configuration not given here. Gly(1-amidinopiperidin-4-yl) = N=C(N)N1CCC([C@H](N)C(=O)O)CC1; X1 = CC(C)c1oc([C@H](CO)N[*:1])nc1C(=O)[*:2]; Pro(3R-Ph) = O=C(O)[C@H]1NCC[C@@H]1c1ccccc1; Tic = O=C(O)[C@@H]1Cc2ccccc2CN1; Cha = N[C@@H](CC1CCCCC1)C(=O)O; NHPhenethyl = c1ccc(CCN*)cc1; NMe(benzyl) = CN(Cc1ccccc1)*; ξDisc = O=C(O)C1NCc2ccccc21; Nle = CCCC[C@H](N)C(=O)O
# Columns and labels:
# [1] = system: DR4 transgenic mice, EAE induced by MOG; experiment: Experimental autoimmune encephalomyelitis (EAE) mouse model for multiple sclerosis; type: in vivo; conditions: for efficacy in the EAE mouse model for multiple sclerosis prevention: compared to solvent as control, s.c.
# Procedure: EAE is induced in DR4 transgenic mice by injection of myelin oligodendrocyte glycoprotein (MOG) as described by Ito et al. (1996). After disease onset, mice are treated with compounds and studied as below:
# Disease Score • 1. Tail atony • 2. Hind limb weakness • 3. Hind limb paralysis • 4. Hind limb paralysis and fore limb weakness or paralysis • 5. Moribund
# Cathepsin L = Cathepsin L (Homo sapiens, UniProt P07711)
# Chain of Cathepsin L (P07711 114-333): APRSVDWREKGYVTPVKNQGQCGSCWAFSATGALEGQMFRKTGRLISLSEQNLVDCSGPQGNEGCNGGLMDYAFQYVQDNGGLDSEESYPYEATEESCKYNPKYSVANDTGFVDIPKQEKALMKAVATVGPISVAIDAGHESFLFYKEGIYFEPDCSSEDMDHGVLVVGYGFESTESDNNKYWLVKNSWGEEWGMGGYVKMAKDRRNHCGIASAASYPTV
Compound,efficacy in the EAE mouse model for multiple sclerosis prevention [1],Stability (Arbitrary units) Cath L 4 h (Cathepsin L) [Arbitrary units],"efficacy in the EAE mouse model in terms of disease treatment, versus Arg compound ([1]; P69 at 125 nM compared to P82 at 250 nM)"
"CCCC[C@H](NC(=O)[C@@H]1Cc2ccccc2CN1C(=O)[C@@H](NC(=O)[C@H](CC1CCCCC1)NC(C)=O)C1CCN(C(=N)N)CC1)C(=O)N1CC[C@H](c2ccccc2)[C@H]1C(=O)N[C@@H](CO)c1nc(C(=O)N(C)C)c(C(C)C)o1 [Compound P53, Ac-Cha-Gpg-Tic-Nle-βPhPro-[S(oxaz)L]-NMe2] (Ac-[Cha][Gly(1-amidinopiperidin-4-yl)][Tic][Nle][Pro(3R-Ph)][X1]-NMe2)",Efficacy,,
"CSCC[C@H](NC(=O)[C@@H]1Cc2ccccc2CN1C(=O)[C@H](CCCNC(=N)N)NC(=O)[C@H](CC1CCCCC1)NC(C)=O)C(=O)N1CC[C@H](c2ccccc2)[C@H]1C(N)=O [Compound P31, Ac-Cha-Arg-Tic-Met-βPhPro-NH2] (Ac-[Cha]R[Tic]M[Pro(3R-Ph)]-NH2)",,103,
"CSCC[C@H](NC(=O)[C@@H]1Cc2ccccc2CN1C(=O)[C@H](CCCNC(=N)N)NC(=O)[C@H](CC1CCCCC1)NC(C)=O)C(N)=O [Compound P1, Ac-Cha-Arg-Tic-Met-NH2] (Ac-[Cha]R[Tic]M-NH2)",,117,
"CCCC[C@H](NC(=O)[C@@H]1Cc2ccccc2CN1C(=O)[C@@H](NC(=O)[C@H](CC1CCCCC1)NC(C)=O)C1CCN(C(=N)N)CC1)C(=O)N(C)Cc1ccccc1 [Compound P74, Ac-Cha-Gpg-Tic-Nle-N(Me)Bn] (Ac-[Cha][Gly(1-amidinopiperidin-4-yl)][Tic][Nle]-{NMe(benzyl)})",Efficacy,,
"CSCC[C@H](NC(=O)C1c2ccccc2CN1C(=O)[C@H](CCCNC(=N)N)NC(=O)[C@H](CC1CCCCC1)NC(C)=O)C(N)=O (stereo partly drawn) [Compound P12-1, Ac-Cha-Arg-Disc-Met-NH2] (Ac-[Cha]R[ξDisc]M-NH2)",,101,
"CCCC[C@H](NC(=O)[C@@H]1Cc2ccccc2CN1C(=O)[C@@H](NC(=O)[C@H](CC1CCCCC1)NC(C)=O)C1CCN(C(=N)N)CC1)C(=O)NCCc1ccccc1 [Compound P69, Ac-Cha-Gpg-Tic-Nle-N(H)CH2CH2Ph] (Ac-[Cha][Gly(1-amidinopiperidin-4-yl)][Tic][Nle]-NHPhenethyl)",Efficacy,,superior
